Source: paper PMC11864979, “First-in-class ultralong-target-residence-time p38α inhibitors as a mitosis-targeted therapy for colorectal cancer” (Nature Cancer, 2025)
Where two headings read alike, the source gives them in different places.

Tests used:
Experiment in all cases: selectivity profiling in a panel of 340 wild-type kinases (Reaction Biology Europe)
Type in all cases: binding
340 wild-type kinases [1] = molecular target: T1, 340 wild-type kinases (Homo sapiens, UniProt Q13555)
T1 construct: purchased Reaction Biology Europe

340 wild-type kinases [2] = molecular target: T2, 340 wild-type kinases (Homo sapiens, UniProt P78368)
T2 construct: purchased Reaction Biology Europe

340 wild-type kinases [3] = molecular target: T3, 340 wild-type kinases (Homo sapiens, UniProt Q8TD19)
T3 construct: purchased Reaction Biology Europe
T3 sequence (Q8TD19 1-979): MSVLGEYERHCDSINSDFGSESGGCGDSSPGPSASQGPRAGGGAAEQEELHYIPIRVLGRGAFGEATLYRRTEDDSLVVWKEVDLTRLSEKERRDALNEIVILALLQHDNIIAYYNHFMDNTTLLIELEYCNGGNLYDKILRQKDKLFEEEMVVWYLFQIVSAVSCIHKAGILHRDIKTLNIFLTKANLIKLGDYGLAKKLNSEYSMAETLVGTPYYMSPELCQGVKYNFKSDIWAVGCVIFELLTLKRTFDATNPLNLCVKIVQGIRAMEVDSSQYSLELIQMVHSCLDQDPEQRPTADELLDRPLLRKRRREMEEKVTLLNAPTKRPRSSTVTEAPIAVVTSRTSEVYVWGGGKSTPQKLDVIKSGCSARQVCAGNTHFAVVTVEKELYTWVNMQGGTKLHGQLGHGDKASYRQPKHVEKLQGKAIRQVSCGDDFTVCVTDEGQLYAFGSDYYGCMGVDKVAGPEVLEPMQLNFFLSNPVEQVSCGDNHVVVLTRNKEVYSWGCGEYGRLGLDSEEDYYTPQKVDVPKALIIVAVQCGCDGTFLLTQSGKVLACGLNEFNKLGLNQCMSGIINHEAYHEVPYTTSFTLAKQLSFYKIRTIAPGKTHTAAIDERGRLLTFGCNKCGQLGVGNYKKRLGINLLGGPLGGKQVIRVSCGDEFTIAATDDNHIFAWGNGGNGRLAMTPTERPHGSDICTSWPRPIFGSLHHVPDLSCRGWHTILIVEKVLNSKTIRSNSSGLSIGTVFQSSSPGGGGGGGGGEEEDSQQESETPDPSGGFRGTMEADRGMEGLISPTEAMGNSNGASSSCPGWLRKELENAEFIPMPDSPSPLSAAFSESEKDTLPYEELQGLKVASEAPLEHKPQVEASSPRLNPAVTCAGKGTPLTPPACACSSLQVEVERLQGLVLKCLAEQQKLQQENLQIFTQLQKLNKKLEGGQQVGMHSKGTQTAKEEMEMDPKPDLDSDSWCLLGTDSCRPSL

340 wild-type kinases [4] = molecular target: T4, 340 wild-type kinases (Homo sapiens, UniProt Q9HAZ1)
T4 construct: purchased Reaction Biology Europe

340 wild-type kinases [5] = molecular target: T5, 340 wild-type kinases (Homo sapiens, UniProt P43250)
T5 construct: purchased Reaction Biology Europe

340 wild-type kinases [6] = molecular target: T6, 340 wild-type kinases (Homo sapiens, UniProt Q9UIK4)
T6 construct: purchased Reaction Biology Europe

340 wild-type kinases [7] = molecular target: T7, 340 wild-type kinases (Homo sapiens, UniProt P07332)
T7 construct: purchased Reaction Biology Europe

340 wild-type kinases [8] = molecular target: T8, 340 wild-type kinases (Homo sapiens, UniProt P14616)
T8 construct: purchased Reaction Biology Europe

340 wild-type kinases [9] = molecular target: T9, 340 wild-type kinases (Homo sapiens, UniProt Q00537)
T9 construct: purchased Reaction Biology Europe

340 wild-type kinases [10] = molecular target: T10, 340 wild-type kinases (Homo sapiens, UniProt Q99640)
T10 construct: purchased Reaction Biology Europe
T10 sequence (Q99640 1-499): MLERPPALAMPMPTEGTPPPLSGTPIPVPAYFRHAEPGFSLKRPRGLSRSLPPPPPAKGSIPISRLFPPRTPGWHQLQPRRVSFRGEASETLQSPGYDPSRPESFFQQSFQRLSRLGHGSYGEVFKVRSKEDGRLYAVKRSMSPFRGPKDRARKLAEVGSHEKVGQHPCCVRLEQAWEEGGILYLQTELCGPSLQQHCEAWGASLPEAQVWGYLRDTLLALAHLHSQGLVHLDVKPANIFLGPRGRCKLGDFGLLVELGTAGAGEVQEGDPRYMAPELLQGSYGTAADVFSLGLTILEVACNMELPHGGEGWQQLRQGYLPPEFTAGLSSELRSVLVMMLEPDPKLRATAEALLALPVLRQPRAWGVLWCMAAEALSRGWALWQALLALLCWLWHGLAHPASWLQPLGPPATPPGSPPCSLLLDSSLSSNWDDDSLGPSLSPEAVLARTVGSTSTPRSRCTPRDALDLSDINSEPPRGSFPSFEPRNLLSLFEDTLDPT

T7 sequence (P07332 whole entry): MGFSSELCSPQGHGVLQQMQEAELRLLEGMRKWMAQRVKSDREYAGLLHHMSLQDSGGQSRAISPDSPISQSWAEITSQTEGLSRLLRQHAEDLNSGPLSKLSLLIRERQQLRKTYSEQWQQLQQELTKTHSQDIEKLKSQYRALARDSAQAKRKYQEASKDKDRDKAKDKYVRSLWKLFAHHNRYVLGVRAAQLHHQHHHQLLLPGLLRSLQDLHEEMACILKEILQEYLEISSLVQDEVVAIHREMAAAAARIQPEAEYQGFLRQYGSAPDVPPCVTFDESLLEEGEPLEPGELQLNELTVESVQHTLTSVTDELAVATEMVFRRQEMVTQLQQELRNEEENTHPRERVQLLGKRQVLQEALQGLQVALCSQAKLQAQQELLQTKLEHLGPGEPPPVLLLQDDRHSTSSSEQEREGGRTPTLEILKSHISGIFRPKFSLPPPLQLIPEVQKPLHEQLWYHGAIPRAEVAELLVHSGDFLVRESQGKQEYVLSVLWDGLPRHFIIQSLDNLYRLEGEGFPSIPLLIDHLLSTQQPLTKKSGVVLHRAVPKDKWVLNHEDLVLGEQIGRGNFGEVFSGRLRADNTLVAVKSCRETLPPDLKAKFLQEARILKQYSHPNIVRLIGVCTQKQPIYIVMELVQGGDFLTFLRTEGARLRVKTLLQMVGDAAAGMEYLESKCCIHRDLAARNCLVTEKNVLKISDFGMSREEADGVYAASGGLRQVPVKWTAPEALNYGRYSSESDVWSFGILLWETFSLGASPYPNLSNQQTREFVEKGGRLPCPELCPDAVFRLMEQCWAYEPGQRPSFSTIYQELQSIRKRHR
T8 sequence (P14616 27-1297): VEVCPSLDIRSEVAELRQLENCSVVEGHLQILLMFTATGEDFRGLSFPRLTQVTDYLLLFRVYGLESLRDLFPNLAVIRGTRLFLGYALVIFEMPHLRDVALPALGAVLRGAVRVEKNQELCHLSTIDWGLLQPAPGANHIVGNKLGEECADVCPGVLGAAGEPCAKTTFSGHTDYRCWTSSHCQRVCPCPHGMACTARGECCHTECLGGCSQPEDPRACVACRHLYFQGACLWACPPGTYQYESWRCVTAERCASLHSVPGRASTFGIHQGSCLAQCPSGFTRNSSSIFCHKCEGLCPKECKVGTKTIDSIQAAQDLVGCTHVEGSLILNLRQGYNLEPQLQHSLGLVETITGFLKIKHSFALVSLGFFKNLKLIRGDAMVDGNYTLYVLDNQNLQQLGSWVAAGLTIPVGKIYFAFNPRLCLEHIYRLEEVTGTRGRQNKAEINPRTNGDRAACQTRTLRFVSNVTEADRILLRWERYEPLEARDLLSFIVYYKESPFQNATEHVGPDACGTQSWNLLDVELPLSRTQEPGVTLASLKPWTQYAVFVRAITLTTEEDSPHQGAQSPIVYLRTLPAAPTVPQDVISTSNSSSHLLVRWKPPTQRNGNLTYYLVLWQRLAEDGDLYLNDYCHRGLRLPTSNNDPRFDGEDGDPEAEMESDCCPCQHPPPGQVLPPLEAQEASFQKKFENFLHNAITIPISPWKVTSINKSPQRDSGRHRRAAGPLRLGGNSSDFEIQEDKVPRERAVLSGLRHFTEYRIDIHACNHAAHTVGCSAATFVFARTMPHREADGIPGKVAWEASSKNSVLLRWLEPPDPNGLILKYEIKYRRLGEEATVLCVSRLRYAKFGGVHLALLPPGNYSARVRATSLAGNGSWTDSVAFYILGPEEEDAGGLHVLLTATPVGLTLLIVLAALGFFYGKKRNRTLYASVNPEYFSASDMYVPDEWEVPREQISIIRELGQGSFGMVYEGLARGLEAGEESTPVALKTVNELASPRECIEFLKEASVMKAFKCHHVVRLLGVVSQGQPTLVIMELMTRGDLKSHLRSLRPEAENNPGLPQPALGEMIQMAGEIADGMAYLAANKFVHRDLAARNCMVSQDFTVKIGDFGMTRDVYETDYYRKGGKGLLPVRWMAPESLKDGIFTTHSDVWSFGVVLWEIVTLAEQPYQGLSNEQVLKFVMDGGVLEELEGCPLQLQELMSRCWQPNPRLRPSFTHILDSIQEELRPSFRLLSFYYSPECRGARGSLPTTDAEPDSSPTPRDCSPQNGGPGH
T6 sequence (Q9UIK4 whole entry): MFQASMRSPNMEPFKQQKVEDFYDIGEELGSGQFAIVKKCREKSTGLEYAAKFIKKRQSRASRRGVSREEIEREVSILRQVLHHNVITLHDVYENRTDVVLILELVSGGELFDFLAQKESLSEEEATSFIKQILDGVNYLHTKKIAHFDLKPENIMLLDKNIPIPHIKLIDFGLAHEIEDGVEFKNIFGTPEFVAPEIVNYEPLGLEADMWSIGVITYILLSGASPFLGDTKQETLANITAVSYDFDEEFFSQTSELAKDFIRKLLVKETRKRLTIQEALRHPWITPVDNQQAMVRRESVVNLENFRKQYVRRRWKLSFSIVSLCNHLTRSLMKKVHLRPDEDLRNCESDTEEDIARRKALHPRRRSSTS
T1 sequence (Q13555 whole entry): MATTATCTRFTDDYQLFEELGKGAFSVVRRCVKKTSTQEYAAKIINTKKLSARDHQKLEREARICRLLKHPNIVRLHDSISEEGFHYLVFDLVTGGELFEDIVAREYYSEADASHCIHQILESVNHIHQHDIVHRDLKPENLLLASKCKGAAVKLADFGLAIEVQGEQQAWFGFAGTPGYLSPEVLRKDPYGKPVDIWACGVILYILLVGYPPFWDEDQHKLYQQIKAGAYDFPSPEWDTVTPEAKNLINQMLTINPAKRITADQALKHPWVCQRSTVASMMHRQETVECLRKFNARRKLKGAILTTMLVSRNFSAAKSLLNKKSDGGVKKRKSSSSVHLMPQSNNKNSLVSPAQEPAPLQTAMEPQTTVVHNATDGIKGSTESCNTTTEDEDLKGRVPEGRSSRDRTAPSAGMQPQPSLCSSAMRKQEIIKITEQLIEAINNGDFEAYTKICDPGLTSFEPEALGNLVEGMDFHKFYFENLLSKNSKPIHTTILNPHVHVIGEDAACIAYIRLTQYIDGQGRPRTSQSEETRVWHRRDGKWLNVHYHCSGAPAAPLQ
T2 sequence (P78368 whole entry): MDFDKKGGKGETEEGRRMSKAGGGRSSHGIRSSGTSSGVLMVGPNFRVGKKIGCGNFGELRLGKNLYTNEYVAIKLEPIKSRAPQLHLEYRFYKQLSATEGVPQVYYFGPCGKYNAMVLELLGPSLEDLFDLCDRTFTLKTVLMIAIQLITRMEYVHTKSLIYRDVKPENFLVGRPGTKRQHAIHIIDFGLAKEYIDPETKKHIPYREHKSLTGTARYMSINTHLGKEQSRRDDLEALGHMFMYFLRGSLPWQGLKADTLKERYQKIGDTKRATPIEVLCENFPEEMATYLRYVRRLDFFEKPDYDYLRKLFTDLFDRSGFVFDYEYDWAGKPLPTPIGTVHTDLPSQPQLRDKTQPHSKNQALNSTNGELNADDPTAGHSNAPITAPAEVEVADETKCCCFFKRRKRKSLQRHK
T5 sequence (P43250 whole entry): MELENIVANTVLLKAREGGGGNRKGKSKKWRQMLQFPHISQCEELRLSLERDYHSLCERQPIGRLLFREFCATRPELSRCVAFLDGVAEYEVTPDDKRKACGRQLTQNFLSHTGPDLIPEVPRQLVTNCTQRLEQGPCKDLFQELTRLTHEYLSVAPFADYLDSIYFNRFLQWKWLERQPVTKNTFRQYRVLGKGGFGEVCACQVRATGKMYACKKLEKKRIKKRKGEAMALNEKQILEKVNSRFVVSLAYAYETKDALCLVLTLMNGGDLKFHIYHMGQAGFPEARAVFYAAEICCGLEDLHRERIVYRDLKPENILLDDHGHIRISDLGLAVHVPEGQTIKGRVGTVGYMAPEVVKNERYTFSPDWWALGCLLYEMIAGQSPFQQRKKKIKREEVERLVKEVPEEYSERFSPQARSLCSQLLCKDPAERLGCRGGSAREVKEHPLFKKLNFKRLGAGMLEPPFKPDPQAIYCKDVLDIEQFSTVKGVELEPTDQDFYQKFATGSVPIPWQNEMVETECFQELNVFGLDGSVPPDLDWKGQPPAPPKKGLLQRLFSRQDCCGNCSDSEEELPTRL
T4 sequence (Q9HAZ1 whole entry): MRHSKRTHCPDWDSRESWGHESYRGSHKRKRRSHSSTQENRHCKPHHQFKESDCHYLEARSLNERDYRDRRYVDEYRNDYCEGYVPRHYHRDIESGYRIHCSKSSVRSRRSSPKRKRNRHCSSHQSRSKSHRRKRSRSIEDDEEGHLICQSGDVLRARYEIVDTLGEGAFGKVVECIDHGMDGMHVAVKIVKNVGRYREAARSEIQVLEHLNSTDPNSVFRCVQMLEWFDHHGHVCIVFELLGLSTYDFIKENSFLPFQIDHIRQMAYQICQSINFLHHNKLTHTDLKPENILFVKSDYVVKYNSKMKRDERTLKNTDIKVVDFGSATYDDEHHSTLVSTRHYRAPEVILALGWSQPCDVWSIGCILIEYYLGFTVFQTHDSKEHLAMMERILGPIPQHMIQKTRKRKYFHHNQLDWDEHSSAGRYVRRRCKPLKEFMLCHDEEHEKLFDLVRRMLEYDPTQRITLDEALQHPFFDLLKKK
T9 sequence (Q00537 whole entry): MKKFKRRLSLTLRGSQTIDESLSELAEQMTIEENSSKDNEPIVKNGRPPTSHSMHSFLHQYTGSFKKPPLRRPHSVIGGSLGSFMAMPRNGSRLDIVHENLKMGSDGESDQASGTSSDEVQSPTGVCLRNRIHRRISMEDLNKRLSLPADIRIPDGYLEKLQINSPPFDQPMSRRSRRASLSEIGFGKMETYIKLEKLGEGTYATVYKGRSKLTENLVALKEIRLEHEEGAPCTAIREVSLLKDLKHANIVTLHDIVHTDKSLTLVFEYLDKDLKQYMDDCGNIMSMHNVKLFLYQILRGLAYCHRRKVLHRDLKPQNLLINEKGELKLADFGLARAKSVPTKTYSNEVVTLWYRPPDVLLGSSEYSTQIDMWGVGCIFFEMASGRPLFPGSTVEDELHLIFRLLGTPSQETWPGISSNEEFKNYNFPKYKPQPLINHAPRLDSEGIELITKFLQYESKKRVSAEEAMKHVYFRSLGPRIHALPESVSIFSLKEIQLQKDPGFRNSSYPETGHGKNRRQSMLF

SMILES: CNC(=O)c1ccc2c(c1)C(=O)c1ccc(Nc3ccc(F)c(NC(=O)C4CC4)c3)cc1CC2 [Compound 2015]
- remaining activity at 0.2 µM (340 wild-type kinases [1]; 0.2 µM 2015, read-out: CAMK2G residual activity): 99%
- remaining activity at 1 µM (340 wild-type kinases [1]; 1 µM 2015, read-out: CAMK2G residual activity): 90.5%
- remaining activity at 0.2 µM (340 wild-type kinases [1]; CAMK2G, 0.2 µM, read-out: residual activity): 99%
- remaining activity at 1 µM (340 wild-type kinases [1]; CAMK2G, 1 µM, read-out: residual activity): 90.5%
- remaining activity at 0.2 µM (340 wild-type kinases [2]; 0.2 µM 2015, read-out: CK1gamma2 residual activity): 111%
- remaining activity at 1 µM (340 wild-type kinases [2]; 1 µM 2015, read-out: CK1gamma2 residual activity): 113%
- remaining activity at 0.2 µM (340 wild-type kinases [2]; CK1gamma2, 0.2 µM, read-out: residual activity): 111%
- remaining activity at 1 µM (340 wild-type kinases [2]; CK1gamma2, 1 µM, read-out: residual activity): 113%
- remaining activity at 0.2 µM (340 wild-type kinases [3]; 0.2 µM 2015, read-out: NEK9 residual activity): 96.5%
- remaining activity at 1 µM (340 wild-type kinases [3]; 1 µM 2015, read-out: NEK9 residual activity): 93%
- remaining activity at 0.2 µM (340 wild-type kinases [3]; NEK9, 0.2 µM, read-out: residual activity): 96.5%
- remaining activity at 1 µM (340 wild-type kinases [3]; NEK9, 1 µM, read-out: residual activity): 93%
- remaining activity at 0.2 µM (340 wild-type kinases [4]; 0.2 µM 2015, read-out: CLK4 residual activity): 120%
- remaining activity at 0.2 µM (340 wild-type kinases [4]; CLK4, 0.2 µM, read-out: residual activity): 120%
- remaining activity at 1 µM (340 wild-type kinases [4]; CLK4, 1 µM, read-out: residual activity): 118%
- remaining activity at 0.2 µM (340 wild-type kinases [5]; 0.2 µM 2015, read-out: GRK6 residual activity): 111%
- remaining activity at 1 µM (340 wild-type kinases [5]; 1 µM 2015, read-out: GRK6 residual activity): 110%
- remaining activity at 0.2 µM (340 wild-type kinases [5]; GRK6, 0.2 µM, read-out: residual activity): 111%
- remaining activity at 1 µM (340 wild-type kinases [5]; GRK6, 1 µM, read-out: residual activity): 110%
- remaining activity at 0.2 µM (340 wild-type kinases [6]; 0.2 µM 2015, read-out: DAPK2 residual activity): 116%
- remaining activity at 1 µM (340 wild-type kinases [6]; 1 µM 2015, read-out: DAPK2 residual activity): 100%
- remaining activity at 0.2 µM (340 wild-type kinases [6]; DAPK2, 0.2 µM, read-out: residual activity): 116%
- remaining activity at 1 µM (340 wild-type kinases [6]; DAPK2, 1 µM, read-out: residual activity): 100%
- remaining activity at 0.2 µM (340 wild-type kinases [7]; 0.2 µM 2015, read-out: FES residual activity): 105%
- remaining activity at 1 µM (340 wild-type kinases [7]; 1 µM 2015, read-out: FES residual activity): 92.1%
- remaining activity at 0.2 µM (340 wild-type kinases [7]; FES, 0.2 µM, read-out: residual activity): 105%
- remaining activity at 1 µM (340 wild-type kinases [7]; FES, 1 µM, read-out: residual activity): 92.1%
- remaining activity at 0.2 µM (340 wild-type kinases [8]; 0.2 µM 2015, read-out: INSRR residual activity): 96%
- remaining activity at 1 µM (340 wild-type kinases [8]; 1 µM 2015, read-out: INSRR residual activity): 97.4%
- remaining activity at 0.2 µM (340 wild-type kinases [8]; INSRR, 0.2 µM, read-out: residual activity): 96%
- remaining activity at 1 µM (340 wild-type kinases [8]; INSRR, 1 µM, read-out: residual activity): 97.4%
- remaining activity at 0.2 µM (340 wild-type kinases [9]; 0.2 µM 2015, read-out: CDK17/p35NCK residual activity): 94.8%
- remaining activity at 1 µM (340 wild-type kinases [9]; 1 µM 2015, read-out: CDK17/p35NCK residual activity): 93.6%
- remaining activity at 1 µM (340 wild-type kinases [9]; CDK17/p35NCK, 1 µM, read-out: residual activity): 93.6%
- remaining activity at 0.2 µM (340 wild-type kinases [10]; 0.2 µM 2015, read-out: PKMYT1 residual activity): 98.1%
- remaining activity at 1 µM (340 wild-type kinases [10]; 1 µM 2015, read-out: PKMYT1 residual activity): 102%
- remaining activity at 0.2 µM (340 wild-type kinases [10]; PKMYT1, 0.2 µM, read-out: residual activity): 98%
- remaining activity at 1 µM (340 wild-type kinases [10]; PKMYT1, 1 µM, read-out: residual activity): 102%
